Reference: US9957270B2, “Fused pyrimidine-based hydroxamate derivatives” (Agency for Science, Technology and Research, priority 2014, dated 2018)

Tests used:
[1] = Microsomal stability, human liver microsomes; conditions: human, microsomes, 0.75 h, 5 μM, pH 7.4
Procedure: (§1) GIBIO pooled human liver microsomes (HLM) (Cat # HMMCPL), mouse liver microsomes (MLM) (Cat # BCMCPL), and rat liver microsomes (RLM) (Cat # RTMCPL) were purchased from Life Technologies. […] Samples are incubated for 30, 45, or 60 min. Reaction is terminated with ice-cold acetonitrile 0.3% formic acid. Samples are subsequently centrifuged at 4° C. for 15 min at 20,000×g. The supernatant is analysed by LC-MS.
(§2) Compound in vitro metabolic stability was assayed using liver microsomes (LM) at 0.5 mg/mL of proteins, incubated for 30 min (mouse, MLM), 45 min (rat, RLM), 30 or 45 min (human, HLM). % of remaining parent compound was measured using LC-MS.

[2] = Microsomal stability, mouse liver microsomes; conditions: mouse, microsomes, 0.5 h, 5 μM, pH 7.4
Procedure: as §1, §2

[3] = Microsomal stability, rat liver microsomes; conditions: rat, microsomes, 0.75 h, 5 μM, pH 7.4
Procedure: as §1, §2

[4] = system: histone 3 (Lys 9) and α-tubulin acetylation (HDACs) in PC-3 cells; experiment: Western blot, acetylation of histone 3 (Lys 9) and α-tubulin in PC-3 cells; type: cell-based, human; conditions: 24 h, 1 or 10 μM
Procedure: Proteins in cell lysates are resolved by SDS-PAGE and transferred to PVDF and probed with appropriate primary and secondary antibodies. […] Representative Western blot images are shown in FIG. 15 and analyzed results are presented by FIGS. 17 to 20.
PC-3 cells were treated with test compounds at the following concentrations (all contain 0.1% DMSO) for 24 h at 37° C., and then processed according to section of Western Blot Analysis.
The graph represents results from two Western Blot analyses. […] Vehicle DMSO (0.1%) was used as blank control, and its acH3 level was normalized to 1. Y Axis is expressed as Mean±SD if applicable.
Vehicle DMSO (0.1%) as blank control, and its acetylation level was normalized to 1. Y Axis is expressed as Mean±SD if applicable.

MV-4-11 cells [5] = experiment: Caspase activity assay, MV-4-11 cells; type: cell-based, human; conditions: Homo sapiens, MV4-11, 24 h, read-out: EC50 induction of caspase activity
Procedure: Cells are cultivated and treated with test compounds in 96-well plates as described in the above Cell Culture and Anti-Proliferative Assays section. […] The incubation time can be extended up to overnight (18 h) if the Caspase activity is low. Staurosporine is used as positive control.
Y Axis is expressed as Mean±SD if applicable.

MV-4-11 cells [6] = experiment: Cell viability/cytotoxicity assay (CytoTox-Glo), MV-4-11 cells; type: cell-based, human; conditions: Homo sapiens, MV4-11, 48 h, read-out: cell death potency EC50
Procedure: Cells are cultivated and treated with test compounds in 96-well plates as described in the above Cell Culture and Anti-Proliferative Assays section, the content of dead cells and viable cells are measured using CytoTox-Glo™ Cytotoxicity Assay kit (Promega) per manufacture's protocol. Briefly, CytoTox-Glo™ Cytotoxicity Assay Reagent (48 μL/well) is added to the cells in 96-well plate and the luminescent signals are recorded using a BioTek Synergy H4 reader, then Lysis Reagent (48 μL/well) is added and the luminescent signals derived from both dead and viable cells are recorded. Viability can be calculated by subtracting the luminescent signal resulting from experimental cell death from total luminescent values. Staurosporine is used as positive control.
Fold of cell death of treated vs untreated was monitored at different time points. […] Y Axis is expressed as Mean±SD if applicable.

MV4-11 tumors = conditions: EX2 IV 50, IP 100, PO 150 mg/kg; EX78 IV 25, PO 100 mg/kg; Western blot of tumors
HepG2 xenograft = conditions: NCr nude mice, 150 mg/kg oral
HuH-7 xenograft = conditions: HuH-7, NCr nude mice, 150 mg/kg oral
NCI-H460 xenograft = conditions: CB17 scid mice, 150 mg/kg oral
MV-4-11 = conditions: read-out: In Vitro Cellular IC50 MV-4-11; Table 4; 72 h
[7] = biological target: HDAC (HeLa nuclear extracts); experiment: HDAC enzyme assay, HeLa nuclear extracts; conditions: read-out: In Vitro Enzymatic IC50 HDAC (HeLa)
PC-3 = experiment: Anti-proliferative assay (cellular IC50), PC-3; conditions: read-out: In Vitro Cellular IC50 PC-3; Table 4; 72 h

Compound | Microsomal Stability HLM, % of remaining parent compound [1] | Microsomal Stability MLM, % of remaining parent compound [2] | Microsomal Stability RLM, % of remaining parent compound [3] | Hyperacetylation of histone 3 (Lys 9) and α-tubulin [4] | EC50 (MV-4-11 cells [5]) | EC50 (MV-4-11 cells [6]) | Hyperacetylation of H3 in MV4-11 tumors (MV4-11 tumors) | Tolerability (HepG2 xenograft) | Tolerability (HuH-7 xenograft) | maximum body weight loss vs vehicle group (HuH-7 xenograft) | Tolerability (NCI-H460 xenograft) | IC50 (MV-4-11) | IC50 [7] | IC50 (PC-3)
O=C(CCCCCCn1cnc2c(N3CCOCC3)nc(-c3cccc(CO)c3)nc21)NO [compound 2, N-hydroxy-7-(2-(3-(hydroxymethyl)phenyl)-6-morpholino-9H-purin-9-yl)heptanamide] | 99% | 99% | 57% | the hyperacetylation effect is dose-dependent | 0.5 µM | 0.069 µM | hyperacetylation of H3 in MV4-11 tumors | well tolerated | well-tolerated | less than 5% | well tolerated |  |  | 
(N-hydroxy-7-(2-(3-(1- (hydroxyimino)ethyl)-4- methoxyphenyl)-6-morpholino-9H- purin-9-yl)heptanamide [compound 73] |  |  |  |  |  |  |  |  |  |  |  | 0.5 to 2 µM | < 0.01 µM | 2 to 10 µM
